Data on five molecules can be found in patent US8618300B2, “Indolizine inhibitors of leukotriene production” (Boehringer Ingelheim International GmbH, priority 2008, dated 2013).

In experiment [1] the target is T1, recombinant human FLAP protein (Homo sapiens, UniProt P20292).
T1 construct: made in house; host or cells: Sf9 insect cells (100,000 x g membrane pellet)
T1 sequence (P20292 1-161): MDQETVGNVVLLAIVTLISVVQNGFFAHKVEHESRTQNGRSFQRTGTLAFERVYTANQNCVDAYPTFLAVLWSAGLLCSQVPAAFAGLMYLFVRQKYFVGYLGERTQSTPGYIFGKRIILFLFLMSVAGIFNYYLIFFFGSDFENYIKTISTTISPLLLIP
Nature of the experiment: FLAP binding assay, Scintillation Proximity Assay, displacement of [125I]L-691,831. As to conditions: read-out: hFLAP binding IC50. As for the experimental part: Compounds are assessed for the ability to bind to FLAP in a binding assay that measures compound-specific displacement of an iodinated (^1251) FLAP inhibitor via a Scintillation Proximity Assay format (adapted from S. Charleson et al., Mol. Pharmacol., 1992, 41, 873-879).
Cell pellets produced from sf9 insect cells expressing recombinant human FLAP protein are resuspended in buffer A [15 mM Tris-HCl (pH 7.5), 2 mM MgCl2, 0.3 mM EDTA, 1 mM PMSF]. The cells are lysed with a Dounce homogenizer and the material is centrifuged at 10,000×g for 10 minutes. The supernatant is then collected and centrifuged at 100,000×g for 60 minutes. To prepare membrane protein for an assay, an aliquot of the 100,000×g pellet is resuspended in 1 ml of buffer A, Dounce homogenized, and finally subjected to polytron mixing (30 seconds). Membrane protein (25 μl, 5 μg) is mixed with WGA SPA beads (Amersham) and stirred for 1 h. To an assay plate (Perkin Elmer FlexiPlate) is added 25 μl of test compound prepared in Binding buffer [100 mM Tris (pH 7.5), 140 mM NaCl, 5% glycerol, 2 mM EDTA, 0.5 mM TCEP, 0.05% Tween 20], 25 μl of [^125I]L-691,831 (an iodinated analog of MK-591, Charleson et al. Mol. Pharmacol., 41, 873-879, 1992) and finally 50 μl of the bead/protein mixture. (final concentrations: beads, 200 μg/well; protein, 5 μg/well; [^125I] probe, 0 08 nM/well (17 nCi/well). The plates are shaken for 2 h before reading on a Microbeta plate reader. Non-specific binding is determined by the addition of 10 μM cold L-691,831 compound.

Experiment [2] deals with biomarkers for myocardial infarction risk. The settings on record: clinical trials; cited from earlier work.
The next experiment relates to human glomerulonephritis. As to conditions: clinical trial; cited from earlier work.
Experiment [3] has as its system apoE/LDL-R double knockout mice. The settings on record: oral dosing, high-fat diet from 2 months of age to 6 months; cited from earlier work.
The subject of experiment [4] is ApoE^−/−×CD4 dnTβRII mice. As to conditions: infusion, treated for four weeks after 12 weeks plaque growth; cited from earlier work.

As to `COc1ccc(C(=O)c2c(CC(C)(C)C(N)=O)c(C(=O)C(C)(C)C)c3cc(OCc4cccc(N)n4)ccn23)cc1` [3-{7-[(6-aminopyridin-2-yl)methoxy]-1-(2,2-dimethylpropanoyl)-3-(4-methoxybenzoyl)indolizin-2-yl}-2,2-dimethylpropanamide], in experiment [1], the IC50 amounted to 2 nM.
Turning to `COc1ccc(C(=O)c2c(C[C@@H](C(=O)O)C(C)C)c(C(=O)C(C)(C)C)c3cc(OCc4csc(C)n4)ccn23)cc1` [(2R)-2-({1-(2,2-dimethylpropanoyl)-3-[(4-methoxyphenyl)carbonyl]-7-[(2-methyl-1,3-thiazol-4-yl)methoxy]indolizin-2-yl}methyl)-3-methylbutanoic acid], the half-maximal inhibitory concentration (IC50) in experiment [1] stood at 7 nM.
As for `O=C(O)[C@@H](c1ccc(OCc2ccc3ccccc3n2)cc1)C1CCCC1` [DG-031], in experiment [2], the “effect on biomarkers for myocardial infarction risk” value was “dose-dependent suppression of biomarkers”.
For `CC(C)(C)Sc1c(CC(C)(C)C(=O)O)n(Cc2ccc(Cl)cc2)c2ccc(OCc3ccc4ccccc4n3)cc12` [MK-591], the effect on proteinuria result with human glomerulonephritis is listed as “useful for reducing proteinuria”.
As for `CC(C)c1ccc2c(c1)c(SC(C)(C)C)c(CC(C)(C)C(=O)O)n2Cc1ccc(Cl)cc1` [MK-886], in experiment [3], the “decrease in plaque coverage in the aorta” value is given as 56% and the “decrease in plaque coverage in the aortic root” value was 43%. Also, in experiment [4], the “decrease in plaque area in the aortic root” value is approximately 40%.

Broadly, the IC50 is the concentration at which inhibition is half-maximal.
